According to patent US20230085307A1, “PYRIDAZINONE COMPOUND AND HERBICIDE” (NISSAN CHEMICAL CORPORATION, priority 2019, published 2023):

Key:
redroot pigweed = test: Test Example 4: herbicidal effect by soil treatment (Table 19, symbol N); format: in vivo, redroot pigweed (Amaranthus retroflexus); conditions: amount of applied herbicide 320 g/ha
In short: (§1)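 Emulsion of test compound, water-diluted to predetermined amount, sprayed on soil after sowing (seed depth ~1.5 cm, sterilized diluvial soil). Greenhouse, 25–30° C. Effect graded at three weeks post-spray.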

wild oat [1] = test: Test Example 5: herbicidal effect by foliage application, plastic box (Table 20, symbol I); format: in vivo, wild oat (Avena fatua); conditions: foliage application after 14-day growth, evaluated three weeks after application; for Herbicidal effect by foliage application, I: wild oat: amount of applied herbicide 320 g/ha
In short: (§2)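 Post-emergence foliar test in sterilized diluvial soil. Compound applied as water-diluted emulsion at a predetermined rate to 14-day-old plants; evaluation at three weeks.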

Japanese bulrush = test: Test Example 1: herbicidal activity, application before weed generation under submerged conditions (Table 16, symbol B); format: in vivo, Japanese bulrush (Schoenoplectus juncoides); conditions: amount of applied herbicide 320 g/ha
In short: (§3)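 Alluvial soil was flooded to 4 cm depth, weed seeds were sown mixed and 2.5-leaf rice seedlings were transplanted. On sowing day, the compound's emulsion, diluted in water to a set dose, was applied to the water surface. Plants grew at 25–30 °C and were scored 0–5 after three weeks.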

barnyard grass [2] = test: Test Example 3: herbicidal effect by foliage application, Wagner pot (Table 18, symbol H); format: in vivo, barnyard grass (Echinochloa crus-galli); conditions: 320 g/ha
In short: (§4)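 Plants were sown in alluvial soil held under 0.1–0.5 cm standing water and grown 14 days in a greenhouse at 25–30 °C. An emulsifiable formulation, water-diluted to the set dose, was then sprayed onto the foliage, and effects were scored three weeks later using previously defined criteria.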

Chinese sprangletop = test: Test Example 3: herbicidal effect by foliage application, Wagner pot (Table 18, symbol D); format: in vivo, chinese sprangletop (Leptochloa chinensis); conditions: 320 g/ha
In short: as §4

southern crabgrass [3] = test: Test Example 4: herbicidal effect by soil treatment (Table 19, symbol F); format: in vivo, southern crabgrass (Digitaria ciliaris); conditions: amount of applied herbicide 320 g/ha
In short: as §1

persian speedwell = test: Test Example 5: herbicidal effect by foliage application, plastic box (Table 20, symbol R); format: in vivo, Persian speedwell (Veronica persica); conditions: foliage application after 14-day growth, evaluated three weeks after application; for Herbicidal effect by foliage application, R: persian speedwell: amount of applied herbicide 320 g/ha
In short: as §2

southern crabgrass [4] = test: Test Example 5: herbicidal effect by foliage application, plastic box (Table 20, symbol F); format: in vivo, southern crabgrass (Digitaria ciliaris); conditions: foliage application after 14-day growth, evaluated three weeks after application; for Herbicidal effect by foliage application, F: southern crabgrass: amount of applied herbicide 320 g/ha
In short: as §2

Italian ryegrass = test: Test Example 4: herbicidal effect by soil treatment (Table 19, symbol K); format: in vivo, Italian ryegrass (Lolium multiflorum); conditions: amount of applied herbicide 320 g/ha
In short: as §1

blackgrass [5] = test: Test Example 4: herbicidal effect by soil treatment (Table 19, symbol J); format: in vivo, blackgrass (Alopecurus myosuroides); conditions: amount of applied herbicide 320 g/ha
In short: as §1

windgrass = test: Test Example 5: herbicidal effect by foliage application, plastic box (Table 20, symbol L); format: in vivo, windgrass (Apera spica-venti); conditions: foliage application after 14-day growth, evaluated three weeks after application; for Herbicidal effect by foliage application, L: windgrass: amount of applied herbicide 320 g/ha
In short: as §2

wild oat [6] = test: Test Example 4: herbicidal effect by soil treatment (Table 19, symbol I); format: in vivo, wild oat (Avena fatua); conditions: amount of applied herbicide 320 g/ha
In short: as §1

lambsquarters = test: Test Example 5: herbicidal effect by foliage application, plastic box (Table 20, symbol O); format: in vivo, lambsquarters (Chenopodium album); conditions: foliage application after 14-day growth, evaluated three weeks after application; for Herbicidal effect by foliage application, O: lambsquarters: amount of applied herbicide 320 g/ha
In short: as §2

barnyard grass [7] = test: Test Example 5: herbicidal effect by foliage application, plastic box (Table 20, symbol H); format: in vivo, barnyard grass (Echinochloa crus-galli); conditions: foliage application after 14-day growth, evaluated three weeks after application; for Herbicidal effect by foliage application, H: barnyard grass: amount of applied herbicide 320 g/ha
In short: as §2

oval-leafed pondweed = test: Test Example 1: herbicidal activity, application before weed generation under submerged conditions (Table 16, symbol C); format: in vivo, oval-leafed pondweed (Monochoria vaginalis); conditions: amount of applied herbicide 320 g/ha
In short: as §3

blackgrass [8] = test: Test Example 5: herbicidal effect by foliage application, plastic box (Table 20, symbol J); format: in vivo, blackgrass (Alopecurus myosuroides); conditions: foliage application after 14-day growth, evaluated three weeks after application; for Herbicidal effect by foliage application, J: blackgrass: amount of applied herbicide 320 g/ha
In short: as §2

Structure (SMILES) | Herbicidal effect by soil treatment, N: redroot pigweed (redroot pigweed) | Herbicidal effect, B: Japanese bulrush (Japanese bulrush) | herbicidal effect on barnyard grass (H) (barnyard grass [2]) | herbicidal effect on Chinese sprangletop (D) (Chinese sprangletop) | Herbicidal effect by soil treatment, F: southern crabgrass (southern crabgrass [3]) | Herbicidal effect by soil treatment, K: Italian ryegrass (Italian ryegrass) | Herbicidal effect by soil treatment, J: blackgrass (blackgrass [5]) | Herbicidal effect by soil treatment, I: wild oat (wild oat [6]) | Herbicidal effect, C: oval-leafed pondweed (oval-leafed pondweed) | Herbicidal effect by foliage application, I: wild oat (wild oat [1]) | Herbicidal effect by foliage application, R: persian speedwell (persian speedwell) | Herbicidal effect by foliage application, F: southern crabgrass (southern crabgrass [4]) | Herbicidal effect by foliage application, L: windgrass (windgrass) | Herbicidal effect by foliage application, O: lambsquarters (lambsquarters) | Herbicidal effect by foliage application, H: barnyard grass (barnyard grass [7]) | Herbicidal effect by foliage application, J: blackgrass (blackgrass [8]) | other results
CCCC(=O)Oc1c(C)nn(C)c(=O)c1-c1c(-c2ccc(SC)cc2)sc2c(F)cccc12 [4-051] | 5 (Herbicidal rate of 90% or more (almost completely withered)) | 3 (Herbicidal rate of 40% or more and less than 70%) | 5 (Herbicidal rate of 90% or more (almost completely withered)) | 3 (Herbicidal rate of 40% or more and less than 70%) | 0 (Herbicidal rate of 5% or less (almost no effect)) | 4 (Herbicidal rate of 70% or more and less than 90%) | 0 (Herbicidal rate of 5% or less (almost no effect)) | 0 (Herbicidal rate of 5% or less (almost no effect)) | 0 (Herbicidal rate of 5% or less (almost no effect)) | – | – | – | – | – | – | – | herbicidal effect on I: wild oat (evaluation grade 0-5) (wild oat [1]; 320 g/ha): 4 (Herbicidal rate of 70% or more and less than 90%); herbicidal effect on R: persian speedwell (evaluation grade 0-5) (persian speedwell; 320 g/ha): 5 (Herbicidal rate of 90% or more (almost completely withered)); herbicidal effect on F: southern crabgrass (evaluation grade 0-5) (southern crabgrass [4]; 320 g/ha): 0 (Herbicidal rate of 5% or less (almost no effect)); herbicidal effect on L: windgrass (evaluation grade 0-5) (windgrass; 320 g/ha): 5 (Herbicidal rate of 90% or more (almost completely withered)); herbicidal effect on O: lambsquarters (evaluation grade 0-5) (lambsquarters; 320 g/ha): 5 (Herbicidal rate of 90% or more (almost completely withered)); herbicidal effect on H: barnyard grass (evaluation grade 0-5) (barnyard grass [7]; 320 g/ha): 4 (Herbicidal rate of 70% or more and less than 90%); herbicidal effect on J: blackgrass (evaluation grade 0-5) (blackgrass [8]; 320 g/ha): 4 (Herbicidal rate of 70% or more and less than 90%)
Cc1nn(C)c(=O)c(-c2c(-c3ccccc3OC(F)(F)F)sc3c(Cl)cccc23)c1O [4-076] | 4 (Herbicidal rate of 70% or more and less than 90%) | 3 (Herbicidal rate of 40% or more and less than 70%) | 4 (Herbicidal rate of 70% or more and less than 90%) | 3 (Herbicidal rate of 40% or more and less than 70%) | 0 (Herbicidal rate of 5% or less (almost no effect)) | 0 (Herbicidal rate of 5% or less (almost no effect)) | 0 (Herbicidal rate of 5% or less (almost no effect)) | 0 (Herbicidal rate of 5% or less (almost no effect)) | 0 (Herbicidal rate of 5% or less (almost no effect)) | 0 (Herbicidal rate of 5% or less (almost no effect)) | 5 (Herbicidal rate of 90% or more (almost completely withered)) | 1 (Herbicidal rate of 5% or more and less than 20%) | 0 (Herbicidal rate of 5% or less (almost no effect)) | 4 (Herbicidal rate of 70% or more and less than 90%) | 3 (Herbicidal rate of 40% or more and less than 70%) | 0 (Herbicidal rate of 5% or less (almost no effect)) | –
COc1ccc(-c2sc3c(C)cccc3c2-c2c(O)c(C)nn(C)c2=O)cc1 [4-110] | 5 (Herbicidal rate of 90% or more (almost completely withered)) | 5 (Herbicidal rate of 90% or more (almost completely withered)) | 5 (Herbicidal rate of 90% or more (almost completely withered)) | 0 (Herbicidal rate of 5% or less (almost no effect)) | 0 (Herbicidal rate of 5% or less (almost no effect)) | 5 (Herbicidal rate of 90% or more (almost completely withered)) | 0 (Herbicidal rate of 5% or less (almost no effect)) | 0 (Herbicidal rate of 5% or less (almost no effect)) | 4 (Herbicidal rate of 70% or more and less than 90%) | 0 (Herbicidal rate of 5% or less (almost no effect)) | 5 (Herbicidal rate of 90% or more (almost completely withered)) | 1 (Herbicidal rate of 5% or more and less than 20%) | 4 (Herbicidal rate of 70% or more and less than 90%) | 5 (Herbicidal rate of 90% or more (almost completely withered)) | 2 (Herbicidal rate of 20% or more and less than 40%) | 4 (Herbicidal rate of 70% or more and less than 90%) | –
CCSc1ccc(-c2sc3c(C)cccc3c2-c2c(O)c(C)nn(C)c2=O)cc1 [4-124] | 5 (Herbicidal rate of 90% or more (almost completely withered)) | 3 (Herbicidal rate of 40% or more and less than 70%) | 5 (Herbicidal rate of 90% or more (almost completely withered)) | 3 (Herbicidal rate of 40% or more and less than 70%) | 4 (Herbicidal rate of 70% or more and less than 90%) | 4 (Herbicidal rate of 70% or more and less than 90%) | 2 (Herbicidal rate of 20% or more and less than 40%) | 0 (Herbicidal rate of 5% or less (almost no effect)) | 2 (Herbicidal rate of 20% or more and less than 40%) | 4 (Herbicidal rate of 70% or more and less than 90%) | 5 (Herbicidal rate of 90% or more (almost completely withered)) | 3 (Herbicidal rate of 40% or more and less than 70%) | 5 (Herbicidal rate of 90% or more (almost completely withered)) | 5 (Herbicidal rate of 90% or more (almost completely withered)) | 5 (Herbicidal rate of 90% or more (almost completely withered)) | 5 (Herbicidal rate of 90% or more (almost completely withered)) | –
